{
  "source": "paper PMC5322940",
  "about": "(Cell, 2016)",
  "key": {"[1]": {"tested_on": "hCB1 Phe170^2.57Ala or Phe174^2.61Ala", "assay": "Functional studies in mutant hCB1-CHO cells, Phe170Ala or Phe174Ala", "assay_type": "cell-based, human"}, "hCB1R [2]": {"target": "T1, hCB1R (Homo sapiens, UniProt P21554)", "T1 sequence (P21554 whole entry)": "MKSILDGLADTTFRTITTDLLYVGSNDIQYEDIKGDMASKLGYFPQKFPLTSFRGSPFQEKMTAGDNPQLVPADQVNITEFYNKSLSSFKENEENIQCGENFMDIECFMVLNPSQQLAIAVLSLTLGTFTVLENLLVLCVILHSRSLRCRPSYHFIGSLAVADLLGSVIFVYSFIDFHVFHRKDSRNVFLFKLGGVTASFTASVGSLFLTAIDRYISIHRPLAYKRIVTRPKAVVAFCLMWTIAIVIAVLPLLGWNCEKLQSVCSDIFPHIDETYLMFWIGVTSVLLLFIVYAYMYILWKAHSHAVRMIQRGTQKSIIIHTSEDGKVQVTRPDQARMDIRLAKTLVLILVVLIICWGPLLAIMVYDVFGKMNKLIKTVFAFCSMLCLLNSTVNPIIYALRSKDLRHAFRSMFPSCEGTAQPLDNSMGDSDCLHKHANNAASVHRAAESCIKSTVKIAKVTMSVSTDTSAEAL", "assay_type": "cell-based"}, "hCB1 WT receptor": {"target": "hCB1 WT receptor (Homo sapiens, UniProt P21554)", "sequence (P21554 whole entry)": "as above", "assay": "biochemical", "assay_type": "binding"}, "WT CB1": {"target": "WT CB1 (Homo sapiens, UniProt P21554)", "sequence (P21554 whole entry)": "as above", "assay": "Wash out experiment followed by [3H]-CP55,940 saturation binding"}, "hCB1R [3]": {"target": "T1, hCB1R", "assay_type": "cell-based", "remark": "listed apart in the source"}, "CB1 [4]": {"target": "CB1 (Mus musculus, UniProt P47746)", "sequence (P47746 whole entry)": "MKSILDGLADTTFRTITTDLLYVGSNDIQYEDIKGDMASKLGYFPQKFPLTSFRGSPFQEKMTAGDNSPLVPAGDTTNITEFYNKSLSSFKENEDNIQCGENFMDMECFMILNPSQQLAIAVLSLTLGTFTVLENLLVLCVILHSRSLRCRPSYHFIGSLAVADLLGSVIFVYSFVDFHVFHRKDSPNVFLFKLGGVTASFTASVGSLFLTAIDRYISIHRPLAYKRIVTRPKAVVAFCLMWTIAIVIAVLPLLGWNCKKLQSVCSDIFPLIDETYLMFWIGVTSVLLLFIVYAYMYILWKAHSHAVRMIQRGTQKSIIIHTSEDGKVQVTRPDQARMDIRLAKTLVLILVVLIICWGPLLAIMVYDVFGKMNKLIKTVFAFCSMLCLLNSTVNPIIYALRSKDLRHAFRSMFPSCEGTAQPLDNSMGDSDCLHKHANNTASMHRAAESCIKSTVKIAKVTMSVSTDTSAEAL", "assay": "[35S]GTPγS binding to CB1 in C57 mouse cerebellum membranes", "assay_type": "biochemical"}, "CB1 [5]": {"tested_on": "CB1", "conditions": "cited from earlier work"}, "[6]": {"tested_on": "hCB1 Phe170^2.57Trp or Phe174^2.61Trp", "assay": "Functional studies in mutant hCB1-CHO cells, Phe170Trp or Phe174Trp", "assay_type": "cell-based, human", "conditions": "Phe170Ala/Trp or Phe174Ala/Trp vs WT"}, "[7]": {"conditions": "agonist, mouse cerebellum, mean ± S.E.M."}},
  "data": [
    {"compound": "Cc1c(C(=O)NN2CCCCC2)nn(-c2ccc(Cl)cc2Cl)c1-c1ccc(C#CCCO[N+](=O)[O-])cc1", "note": "[AM6538, 4-(4-(1-(2,4-dichlorophenyl)-4-methyl-3-(piperidin-1-ylcarbamoyl)-1H-pyrazol-5-yl)phenyl)but-3-yn-1-yl nitrate]", "values": [
      {"measurement": "Effect of mutation on antagonist functional affinity", "setting": "[1]", "value": "dramatically reduced functional affinity"},
      {"measurement": "Mode of antagonism of CB1-mediated inhibition of adenylyl cyclase activity", "setting": "hCB1R [2]", "value": "competitive antagonist"},
      {"measurement": "Ki", "setting": "hCB1 WT receptor", "value": "3.4 ± 1", "unit": "nM"},
      {"measurement": "Percentage of remaining binding (Bmax) of [3H]-CP55,940", "setting": "hCB1 WT receptor", "value": "~ 30%"},
      {"measurement": "Effect on subsequent [3H]-CP55,940 binding after pretreatment and washout", "setting": "WT CB1", "value": "wash-resistant binding"},
      {"measurement": "Mode of antagonism of β-arrestin2 recruitment", "setting": "hCB1R [3]", "value": "competitive antagonist"},
      {"measurement": "Mode of antagonism of [35S]-GTPγS binding", "setting": "CB1 [4]", "value": "Competitive antagonism was confirmed"}
    ]},
    {"compound": "Cc1c(C(=O)NN2CCS(=O)(=O)CC2)nn(-c2ccc(Cl)cc2Cl)c1-c1ccc(C#CCCC#N)cc1", "note": "[AM6545]", "values": [
      {"measurement": "Affinity and mode of action at CB1", "setting": "CB1 [5]; ref Tam et al., 2010", "value": "high affinity CB1 neutral antagonist"}
    ]},
    {"compound": "CCCCCCC(C)(C)c1ccc([C@@H]2C[C@H](O)CC[C@H]2CCCO)c(O)c1", "note": "[CP55,940]", "values": [
      {"measurement": "Effect of mutation on agonist potency", "setting": "[1]; Phe170Ala or Phe174Ala vs WT", "value": "neither mutation alters the potency"},
      {"measurement": "Effect of mutation on agonist potency", "setting": "[6]", "value": "do not alter the potency"},
      {"measurement": "EC50", "setting": "CB1 [4]; [7]", "value": "63 ± 5.5", "unit": "nM"},
      {"measurement": "Emax", "setting": "CB1 [4]; [7]", "value": "2.40 ± 0.04", "unit": "fold over baseline"}
    ]},
    {"compound": "C[C@H](NC(=O)C(C)(C)Oc1ccc(C(F)(F)F)cn1)[C@@H](Cc1ccc(Cl)cc1)c1cccc(C#N)c1", "note": "[Taranabant]", "values": [
      {"measurement": "Affinity with CB1", "setting": "CB1 [5]; among rimonabant, otenabant and taranabant, ref Table S2", "value": "highest affinity"}
    ]},
    {"compound": "Cc1c(C(=O)NN2CCCCC2)nn(-c2ccc(Cl)cc2Cl)c1-c1ccc(Cl)cc1", "note": "[rimonabant]", "values": [
      {"measurement": "Effect of mutation on antagonist functional affinity", "setting": "[1]", "value": "dramatically reduced functional affinity"}
    ]}
  ]
}
